Reference: ChEMBL document CHEMBL4507264, “Data for DCP probe BAY-7598” (2021)
Activity calls are given as the source filed them.

Experiments:
[1] = biological target: Voltage-dependent N-type calcium channel subunit alpha-1B (Homo sapiens) (UniProt Q00975); assay: Inhibition of Calcium Channel N-Type at 10 µM in the Eurofins-Panlabs radioligand binding assay (Eurofins_assay_216000); conditions: Rattus norvegicus; Compound concentration 10.0 uM
[2] = biological target: Gamma-aminobutyric acid type B receptor subunit 1 (Homo sapiens) (UniProt Q9UBS5); assay: Inhibition of GABAB1A at compound concentration of 10.0 uM in the Eurofins-Panlabs radioligand binding assay (Eurofins_assay_228610); parameters: ligand concentration 4 nM; conditions: Compound concentration 10.0 uM
[3] = biological target: Glutamate receptor ionotropic, kainate (Rattus norvegicus) (UniProt P22756+Q01812+P42260+P42264+Q63273); assay: Inhibition of Glutamate, Kainate at 10 µM in the Eurofins-Panlabs radioligand binding assay (Eurofins_assay_232700); conditions: Compound concentration 10.0 uM
[4] = organism: Rattus norvegicus; assay: Inhibition of Glutamate, NMDA, Phencyclidine at 10 µM in the Eurofins-Panlabs radioligand binding assay (Eurofins_assay_233000); format: protein-complex assay; conditions: Compound concentration 10.0 uM
[5] = biological target: Cysteinyl leukotriene receptor 1 (Homo sapiens) (UniProt Q9Y271); assay: Inhibition of Leukotriene, Cysteinyl CysLT1 at 10 µM in the Eurofins-Panlabs radioligand binding assay (Eurofins_assay_250460); parameters: ligand concentration 0.3 nM, non-specific ligand with concentration 0.3 µM Leukotriene D4, incubation time 30 min, incubation temperature 25 °C; conditions: Compound concentration 10.0 uM
[6] = organism: Homo sapiens; assay: Inhibition of Nicotinic Acetylcholine at compound concentration of 10.0 uM in the Eurofins-Panlabs radioligand binding assay (Eurofins_assay_258590); format: protein-complex assay; conditions: Compound concentration 10.0 uM
[7] = biological target: Acetylcholine receptor subunit alpha (Homo sapiens) (UniProt P02708); assay: Inhibition of Nicotinic Acetylcholine D1, Bungarotoxin at 10 µM in the Eurofins-Panlabs radioligand binding assay (Eurofins_assay_258700); conditions: Compound concentration 10.0 uM
[8] = biological target: hERG (KCNH2) (Homo sapiens, UniProt Q12809); assay: Inhibition of Potassium Channel hERG at 10 µM in the Eurofins-Panlabs radioligand binding assay (Eurofins_assay_265900); parameters: ligand concentration 1.5 nM, non-specific ligand with concentration Astemizole, incubation time 60 min, incubation temperature 25 °C; conditions: HEK-293 cells expressing human recombinant hERG, probe [3H] Astemizole, compound concentration 10 uM
[9] = organism: Rattus norvegicus; assay: Inhibition of Rolipram at 10 µM in the Eurofins-Panlabs radioligand binding assay (Eurofins_assay_268811); format: protein assay; parameters: ligand concentration 1.8 nM; conditions: Compound concentration 10.0 uM
[10] = biological target: Sigma non-opioid intracellular receptor 1 (Homo sapiens) (UniProt Q99720); assay: Inhibition of Sigma 1 at 10 µM in the Eurofins-Panlabs radioligand binding assay (Eurofins_assay_278110); parameters: ligand concentration 8 nM; conditions: Compound concentration 10.0 uM
[11] = biological target: voltage-gated sodium channel, site 2 (Rattus norvegicus, UniProt F1LQQ7+O08562+O88420+O88457+P04774+P04775+P08104+P15389+P15390+Q62968); assay: Inhibition of Sodium Channel, Site 2 at 10 µM in the Eurofins-Panlabs radioligand binding assay (Eurofins_assay_279510); format: protein assay; parameters: ligand concentration 5 nM, non-specific ligand with concentration 100 µM Veratridine, incubation time 60 min, incubation temperature 37 °C; conditions: male, Wistar, rat whole brain (except cerebellum) membranes, probe [3H] Batrachotoxinin, compound concentration 10 uM
[12] = biological target: Substance-P receptor (Homo sapiens) (UniProt P25103); assay: Inhibition of Tachykinin NK1 at 10 µM in the Eurofins-Panlabs radioligand binding assay (Eurofins_assay_255520); parameters: ligand concentration 0.8 nM; conditions: Compound concentration 10.0 uM
[13] = biological target: Macrophage metalloelastase (Homo sapiens, UniProt P39900); assay: Biophysical assay (SPR biosensor-based assay)
[14] = biological target: Mu-type opioid receptor (Homo sapiens) (UniProt P35372); conditions: Compound concentration 10.0 uM
[15] = biological target: Adenosine receptor A1 (Homo sapiens) (UniProt P30542); conditions: Compound concentration 10.0 uM
[16] = biological target: Adenosine receptor A3 (Homo sapiens) (UniProt P0DMS8); conditions: Compound concentration 10.0 uM
[17] = biological target: Beta-1 adrenergic receptor (Homo sapiens) (UniProt P08588); conditions: Compound concentration 10.0 uM
[18] = biological target: D(1A) dopamine receptor (Homo sapiens) (UniProt P21728); conditions: Compound concentration 10.0 uM
[19] = biological target: D(3) dopamine receptor (Homo sapiens) (UniProt P35462); conditions: Compound concentration 10.0 uM
[20] = biological target: Endothelin receptor type B (Homo sapiens) (UniProt P24530); conditions: Compound concentration 10.0 uM
[21] = biological target: T1, Muscarinic acetylcholine receptor M1 (Homo sapiens) (UniProt P11229); conditions: Compound concentration 10.0 uM
T1 sequence (whole entry): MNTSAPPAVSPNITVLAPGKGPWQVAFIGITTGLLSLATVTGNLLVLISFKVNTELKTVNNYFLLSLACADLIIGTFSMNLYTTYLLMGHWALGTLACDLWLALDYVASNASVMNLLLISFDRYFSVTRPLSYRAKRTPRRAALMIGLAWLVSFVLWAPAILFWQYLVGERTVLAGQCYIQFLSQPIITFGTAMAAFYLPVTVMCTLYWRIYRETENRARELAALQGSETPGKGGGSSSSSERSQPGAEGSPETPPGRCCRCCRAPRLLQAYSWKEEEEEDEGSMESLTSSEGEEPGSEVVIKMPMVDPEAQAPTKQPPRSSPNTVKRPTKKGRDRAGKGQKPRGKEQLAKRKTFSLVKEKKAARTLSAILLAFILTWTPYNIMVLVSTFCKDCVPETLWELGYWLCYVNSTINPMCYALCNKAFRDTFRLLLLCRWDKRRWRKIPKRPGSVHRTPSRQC

[22] = biological target: Delta-type opioid receptor (Homo sapiens) (UniProt P41143); conditions: Compound concentration 10.0 uM
[23] = biological target: Mu-type opioid receptor (Homo sapiens) (UniProt P35372); conditions: Compound concentration 10.0 uM; remark: listed apart in the source
[24] = biological target: Sodium-dependent dopamine transporter (Homo sapiens) (UniProt Q01959); conditions: Compound concentration 10.0 uM
[25] = biological target: Sodium-dependent serotonin transporter (Homo sapiens) (UniProt P31645); conditions: Compound concentration 10.0 uM
[26] = biological target: Glucocorticoid receptor (Homo sapiens) (UniProt P04150); conditions: Compound concentration 10.0 uM

Chain of Mu-type opioid receptor (Homo sapiens) (P35372 whole entry): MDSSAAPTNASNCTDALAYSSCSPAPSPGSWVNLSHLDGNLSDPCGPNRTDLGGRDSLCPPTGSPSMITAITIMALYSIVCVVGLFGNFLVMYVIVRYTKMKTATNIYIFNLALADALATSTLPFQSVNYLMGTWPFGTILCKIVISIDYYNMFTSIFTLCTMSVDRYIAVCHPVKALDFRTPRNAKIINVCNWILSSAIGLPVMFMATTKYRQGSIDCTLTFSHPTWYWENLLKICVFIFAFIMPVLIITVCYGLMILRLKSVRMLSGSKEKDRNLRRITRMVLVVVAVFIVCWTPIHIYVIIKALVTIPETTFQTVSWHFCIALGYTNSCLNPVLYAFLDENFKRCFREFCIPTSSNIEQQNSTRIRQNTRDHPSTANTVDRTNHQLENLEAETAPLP
Chain of Beta-1 adrenergic receptor (Homo sapiens) (P08588 whole entry, looked up): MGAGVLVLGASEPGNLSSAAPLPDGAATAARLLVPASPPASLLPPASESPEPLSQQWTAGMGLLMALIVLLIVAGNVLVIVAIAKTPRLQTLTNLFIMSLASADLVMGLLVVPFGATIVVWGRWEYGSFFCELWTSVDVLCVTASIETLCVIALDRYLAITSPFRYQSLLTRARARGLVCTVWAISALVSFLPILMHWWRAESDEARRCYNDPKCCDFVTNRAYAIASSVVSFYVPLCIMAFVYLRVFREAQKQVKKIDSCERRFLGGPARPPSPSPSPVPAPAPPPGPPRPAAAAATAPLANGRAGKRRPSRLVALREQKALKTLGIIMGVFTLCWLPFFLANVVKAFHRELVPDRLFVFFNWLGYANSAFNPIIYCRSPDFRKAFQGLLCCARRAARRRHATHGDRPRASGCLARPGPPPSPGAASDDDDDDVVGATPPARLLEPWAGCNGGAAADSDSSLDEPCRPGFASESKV
Chain of Substance-P receptor (Homo sapiens) (P25103 whole entry): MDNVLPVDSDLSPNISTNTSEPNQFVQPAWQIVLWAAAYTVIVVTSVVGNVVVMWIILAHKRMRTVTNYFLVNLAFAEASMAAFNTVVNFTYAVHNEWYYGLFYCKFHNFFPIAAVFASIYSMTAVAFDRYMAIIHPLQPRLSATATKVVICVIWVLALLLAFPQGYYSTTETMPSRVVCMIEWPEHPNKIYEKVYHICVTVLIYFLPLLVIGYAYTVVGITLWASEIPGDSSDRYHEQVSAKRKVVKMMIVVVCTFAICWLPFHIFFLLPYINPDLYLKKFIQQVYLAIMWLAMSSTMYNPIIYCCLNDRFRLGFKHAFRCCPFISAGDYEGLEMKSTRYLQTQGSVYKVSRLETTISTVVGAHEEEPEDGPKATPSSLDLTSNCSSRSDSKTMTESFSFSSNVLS
Chain of Sodium-dependent serotonin transporter (Homo sapiens) (P31645 whole entry, looked up): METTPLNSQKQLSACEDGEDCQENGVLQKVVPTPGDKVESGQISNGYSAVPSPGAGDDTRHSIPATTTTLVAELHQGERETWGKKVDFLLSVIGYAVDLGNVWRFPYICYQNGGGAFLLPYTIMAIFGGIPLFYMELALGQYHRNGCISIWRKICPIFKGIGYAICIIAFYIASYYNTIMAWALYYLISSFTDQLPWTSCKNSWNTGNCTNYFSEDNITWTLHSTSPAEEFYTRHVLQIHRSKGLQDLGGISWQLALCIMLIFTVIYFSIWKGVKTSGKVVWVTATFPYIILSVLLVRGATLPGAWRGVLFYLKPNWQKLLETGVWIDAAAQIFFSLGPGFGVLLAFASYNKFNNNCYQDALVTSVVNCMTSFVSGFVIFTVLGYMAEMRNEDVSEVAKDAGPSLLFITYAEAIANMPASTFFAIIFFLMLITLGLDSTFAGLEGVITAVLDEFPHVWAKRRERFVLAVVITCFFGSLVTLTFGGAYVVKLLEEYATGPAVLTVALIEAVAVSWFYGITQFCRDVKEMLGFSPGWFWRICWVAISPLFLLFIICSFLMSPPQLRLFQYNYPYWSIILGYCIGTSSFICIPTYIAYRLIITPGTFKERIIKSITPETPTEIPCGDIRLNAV
Chain of Sigma non-opioid intracellular receptor 1 (Homo sapiens) (Q99720 whole entry): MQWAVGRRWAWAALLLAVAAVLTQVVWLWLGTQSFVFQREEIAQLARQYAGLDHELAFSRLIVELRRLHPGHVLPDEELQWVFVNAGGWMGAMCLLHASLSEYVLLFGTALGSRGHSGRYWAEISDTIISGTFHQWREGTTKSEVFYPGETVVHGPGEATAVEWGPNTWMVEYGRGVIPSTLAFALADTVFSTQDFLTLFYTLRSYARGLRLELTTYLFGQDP
Chain of Adenosine receptor A3 (Homo sapiens) (P0DMS8 whole entry): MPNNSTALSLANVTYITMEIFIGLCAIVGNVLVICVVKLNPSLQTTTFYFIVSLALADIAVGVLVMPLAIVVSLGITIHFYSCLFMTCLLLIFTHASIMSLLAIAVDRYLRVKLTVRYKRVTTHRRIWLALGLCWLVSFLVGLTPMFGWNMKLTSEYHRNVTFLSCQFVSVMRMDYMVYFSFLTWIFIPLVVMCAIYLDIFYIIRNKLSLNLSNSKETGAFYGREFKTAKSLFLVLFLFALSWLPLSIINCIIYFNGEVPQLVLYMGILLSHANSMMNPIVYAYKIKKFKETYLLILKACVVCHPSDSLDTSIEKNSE
Chain of Acetylcholine receptor subunit alpha (Homo sapiens) (P02708 whole entry): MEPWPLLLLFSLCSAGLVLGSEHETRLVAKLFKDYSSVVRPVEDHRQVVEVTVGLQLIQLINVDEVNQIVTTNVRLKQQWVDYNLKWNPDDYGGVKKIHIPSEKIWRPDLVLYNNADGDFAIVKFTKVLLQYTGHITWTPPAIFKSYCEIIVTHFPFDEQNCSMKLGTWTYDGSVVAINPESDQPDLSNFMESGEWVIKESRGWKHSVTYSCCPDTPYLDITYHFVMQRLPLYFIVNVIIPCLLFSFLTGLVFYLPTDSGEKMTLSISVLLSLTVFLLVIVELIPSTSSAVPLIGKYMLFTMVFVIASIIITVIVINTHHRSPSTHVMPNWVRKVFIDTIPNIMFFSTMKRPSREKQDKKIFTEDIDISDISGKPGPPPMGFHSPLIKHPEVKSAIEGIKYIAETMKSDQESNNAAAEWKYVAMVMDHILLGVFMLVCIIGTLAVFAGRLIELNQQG
Chain of Sodium-dependent dopamine transporter (Homo sapiens) (Q01959 whole entry): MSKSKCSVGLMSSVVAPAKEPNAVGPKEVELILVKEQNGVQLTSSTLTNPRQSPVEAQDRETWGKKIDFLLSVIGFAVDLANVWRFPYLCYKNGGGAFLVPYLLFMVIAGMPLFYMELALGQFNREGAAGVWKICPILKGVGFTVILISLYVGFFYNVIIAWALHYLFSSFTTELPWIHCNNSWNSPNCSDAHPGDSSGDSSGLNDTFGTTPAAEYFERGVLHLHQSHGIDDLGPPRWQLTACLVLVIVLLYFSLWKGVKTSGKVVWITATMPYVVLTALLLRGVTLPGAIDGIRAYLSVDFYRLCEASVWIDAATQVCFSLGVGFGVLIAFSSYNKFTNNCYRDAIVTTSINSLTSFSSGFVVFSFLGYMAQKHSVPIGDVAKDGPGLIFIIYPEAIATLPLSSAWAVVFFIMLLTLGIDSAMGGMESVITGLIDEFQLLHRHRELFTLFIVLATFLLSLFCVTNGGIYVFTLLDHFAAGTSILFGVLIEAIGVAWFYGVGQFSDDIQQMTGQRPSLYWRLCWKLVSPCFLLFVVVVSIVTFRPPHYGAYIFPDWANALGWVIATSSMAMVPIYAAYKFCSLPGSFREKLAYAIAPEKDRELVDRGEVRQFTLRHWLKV
Chain of Gamma-aminobutyric acid type B receptor subunit 1 (Homo sapiens) (Q9UBS5 whole entry): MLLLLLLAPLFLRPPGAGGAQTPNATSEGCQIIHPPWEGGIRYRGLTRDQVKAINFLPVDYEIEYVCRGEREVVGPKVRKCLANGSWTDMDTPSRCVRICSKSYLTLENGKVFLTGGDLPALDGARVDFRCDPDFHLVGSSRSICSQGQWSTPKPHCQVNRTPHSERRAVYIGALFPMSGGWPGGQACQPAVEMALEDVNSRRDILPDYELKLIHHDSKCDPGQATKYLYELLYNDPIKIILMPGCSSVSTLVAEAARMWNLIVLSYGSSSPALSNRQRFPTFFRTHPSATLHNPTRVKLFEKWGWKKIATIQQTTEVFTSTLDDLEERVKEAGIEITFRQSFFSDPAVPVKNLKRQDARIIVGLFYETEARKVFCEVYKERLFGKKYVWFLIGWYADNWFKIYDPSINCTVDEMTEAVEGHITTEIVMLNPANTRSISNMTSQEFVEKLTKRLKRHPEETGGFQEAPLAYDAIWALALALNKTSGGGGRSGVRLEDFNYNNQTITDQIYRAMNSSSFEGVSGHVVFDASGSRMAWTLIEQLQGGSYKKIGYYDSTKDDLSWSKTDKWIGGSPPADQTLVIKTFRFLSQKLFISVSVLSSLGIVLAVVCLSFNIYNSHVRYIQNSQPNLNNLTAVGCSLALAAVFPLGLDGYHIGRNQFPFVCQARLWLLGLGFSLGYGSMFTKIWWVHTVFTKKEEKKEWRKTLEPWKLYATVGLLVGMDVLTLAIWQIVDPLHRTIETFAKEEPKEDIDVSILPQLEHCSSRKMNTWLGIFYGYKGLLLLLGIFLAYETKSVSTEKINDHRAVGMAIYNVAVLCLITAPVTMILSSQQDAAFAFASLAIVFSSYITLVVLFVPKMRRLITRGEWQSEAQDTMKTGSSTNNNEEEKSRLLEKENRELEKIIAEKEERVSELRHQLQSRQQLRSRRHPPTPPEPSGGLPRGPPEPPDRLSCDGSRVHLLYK
Chain of Endothelin receptor type B (Homo sapiens) (P24530 whole entry): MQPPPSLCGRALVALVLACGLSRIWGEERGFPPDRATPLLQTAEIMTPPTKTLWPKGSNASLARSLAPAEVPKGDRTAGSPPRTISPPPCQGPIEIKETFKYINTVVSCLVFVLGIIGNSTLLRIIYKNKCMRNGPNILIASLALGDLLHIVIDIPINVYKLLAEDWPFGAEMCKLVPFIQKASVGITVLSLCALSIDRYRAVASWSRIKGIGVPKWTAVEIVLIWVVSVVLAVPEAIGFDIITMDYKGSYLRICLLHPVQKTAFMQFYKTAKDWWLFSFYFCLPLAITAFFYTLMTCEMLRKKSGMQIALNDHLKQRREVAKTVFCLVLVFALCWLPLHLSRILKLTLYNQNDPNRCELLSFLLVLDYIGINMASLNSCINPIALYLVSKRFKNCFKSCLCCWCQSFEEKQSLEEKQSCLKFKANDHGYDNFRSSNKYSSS

O=C(O)[C@H]1[C@H](Cn2nnc3ccccc3c2=O)CC[C@@H]1C(=O)c1ccc(OCCC2CCOCC2)cc1 [BAY-7598]
inactive: inhibition [1] 6% | inhibition [2] 0% | inhibition [3] -4% | inhibition [4] 4% | inhibition [5] 8% | inhibition [6] -1% | inhibition [7] 0% | inhibition [9] 10% | inhibition [10] -7% | inhibition [12] -4% | inhibition [14] -9.72% | inhibition [15] -2% | inhibition [16] 13% | inhibition [17] 0% | inhibition [18] 3% | inhibition [19] 12% | inhibition [20] 18% | inhibition [21] 0% | inhibition [22] 9% | inhibition [23] -9% | inhibition [24] 0% | inhibition [25] 9% | inhibition [26] 12%
active: Kd [13] 4 pM
-1% (not active): inhibition at 60 min, 10 µM [11]
7% (not active): inhibition at 60 min, 10 µM [8]
